Columns and labels:
[1] = test system: C57BL/6N mice; experiment: Hair regrowth in mice with back hair removed, skin application (visual observation, hair length); type: in vivo; details: 3 mg/mouse/day on back skin once a day
Description: To visually confirm the state of hair growth, after the animals were lightly anesthetized with ether, the back was photographed, at the end of one week, two weeks, three weeks, and four weeks after application begins, Hair length was measured using a ruler to evaluate the degree of hair growth.

[2] = test system: hair follicles of back skin; experiment: Histological analysis of back skin (Hematoxylin-Eosin, hair follicle number and diameter); type: in vivo; details: back skin after 4 weeks of application, 3 mg/mouse/day
Text: After 4 weeks of application, the animals were sacrificed and the back skin tissue sample was extracted with scissors and forceps around the area where the experimental material was applied, and fixed with formalin. After each step was dehydrated with alcohol and xylene, the back skin tissue sample was embedded with paraffin, and was cut into 5 μm slice using a microtome, and then paraffin was removed with alcohol and xylene. […] A pathology speculum specialist was examined to evaluate the hair growth cycle, and quantity of hair follicle and diameter were measured on an optical microscope.
The results of measurement of the hair follicle number in each experimental group under an optical microscope of magnification of 40 are illustrated in FIG. 3.

[3] = test system: β-catenin; experiment: Western blot of back skin tissue; type: in vivo, mouse; details: 4 weeks application
Description: A predetermined amount of visceral fat or liver tissue was homogenized with liquid nitrogen and lysis buffer in a mortar, and then centrifuged at 13,000×g at 4° C. for 20 minutes. And the middle layer was taken and the protein was quantified by the Bradford method. 50 μg of protein was electrophoresed on SDS polyacrylamide gel, electro blotted onto PVDF hyper film, and reacted with β-catenin and β-actin antibody (Cell Signaling Technology, Danvers, Mass., USA), respectively. Signals of each protein were visualized using a chemiluminescent detection system (Amersham) and the band thickness was quantified using Quantity One Analysis Software (Bo-Rad Laboratories).
The Wnt/β-catenin Signal transduction pathway is known to be involved in promoting entry into the anagen by regulating hair follicle cycle. The expression level of β-catenin was analyzed by western blotting in the back skin tissues in order to determine whether the signal transduction pathway related to hair growth promotion was activated.

[4] = test system: Axin; experiment: RT-PCR gene expression in back skin tissue; type: in vivo, mouse; details: 4 weeks application
Description: (§1) To quantitatively analyze total RNA in skin tissue of experimental animal, 1 mL of Trizol solution was added to 50-100 mg of skin tissue and homogenized, followed by centrifugation at 12,000×g for 10 minutes at 4° C. After transferring the supernatant liquid to a new tube, 200 μl of chloroform was added and the mixture was vigorously shaken. This process above was repeated twice, then the supernatant liquid was transferred to a new tube and isoprophanol and the supernatant liquid were added at a ratio of 1:1. The mixture was shaken 10 times and then allowed to stand at room temperature for 10 minutes, and the supernatant liquid was removed after centrifugation at 12,000×g for 10 minutes at 4° C., and 1 ml of 70% ethanol was added to the remaining precipitate, and the precipitate was centrifuged at 7,500×g and 4° C. for 5 minutes. After removing the ethanol, the tube containing the RNA precipitate was dried at room temperature for 5 minutes, and the RNA pellet was dissolved using nuclease free water. The concentration of RNA extracted at 260 nm and 280 nm wavelengths was measured using a UV/VIS spectrophotometer (Beckman coulter, DU730), and agarose gel electrophoresis was performed to confirm the integrity of the RNA sample.
(§2) cDNA was synthesized by performing reverse transcription using oligo dT primer and superscript reverse transcriptase (GIBCOBRL, Gaithersburg, Md., USA) after RNA isolation. The cDNA obtained by reverse transcription was determined as a template, and PCR was performed using the 5′ and 3′ flanking sequence of the gene cDNA to be amplified as primers. In this case, primers required were synthesized by a manufacture specialized company of primers (Bionia Co., Ltd., Korea), and the primer sequences were illustrated in Table 1 below. 2 μl of the reacted cDNA reaction mixture and 2.5 units of Taq polymerase (Takara, Japan) were added to a mixture prepared by adding 5 μl of 10× reaction buffer [100 mM KCL, 20 mM Tris-HCL (pH 8.0), 2.5 mM MgCl2], 4 μl of 10 mM dNTP, and 1 μl each of 0.2 μM sense and antisense primer, and the volume was adjusted using 50 μl of distilled water, then PCR was performed using a PCR instrument. PCR conditions were set at 94° C. for 4 minutes, 94° C. for 30 seconds, 30 cycles [52° C. for 30 seconds, 72° C. for 45 seconds] and 72° C. for 10 minutes. Since 1 μl of the amplified product was electrophoresed on 1% agarose gel to check the DNA band, gene expression level was evaluated.
(§3) The expression change of Wnt/β-catenin signal transduction material which was known as hair growth promotion mechanism in the back skin tissue of the mice to which the experimental material was applied for 4 weeks, was analyzed by RT-PCR.

[5] = test system: FZD1 (frizzled receptor 1); experiment: RT-PCR gene expression in back skin tissue; type: in vivo, mouse; details: 4 weeks application
Description: as §1, §2, §3

[6] = test system: GSK3β (glycogen synthase kinase 3β); experiment: RT-PCR gene expression in back skin tissue; type: in vivo, mouse; details: 4 weeks application
Description: as §1, §2, §3

[7] = test system: LRP5 (low-density lipoprotein receptor-related protein 5); experiment: RT-PCR gene expression in back skin tissue; type: in vivo, mouse; details: 4 weeks application
Description: as §1, §2, §3

[8] = test system: Wnt10b; experiment: RT-PCR gene expression in back skin tissue; type: in vivo, mouse; details: 4 weeks application
Description: as §1, §2, §3

[9] = test system: β-catenin; experiment: RT-PCR gene expression in back skin tissue; type: in vivo, mouse; details: 4 weeks application
Description: as §1, §2, §3

[10] = test system: hepatocyte growth factor (HGF); experiment: RT-PCR gene expression in back skin tissue; type: in vivo, mouse; details: 4 weeks application
Description: as §1
as §2, with “PCR conditions were set at 94° C. for 4 minutes, 94° C. for 30 seconds, 30 cycles [52° C. for 30 seconds, 72° C. for 45 seconds] and 72° C. for 10 minutes.” left out
(§4) In addition, to investigate hair growth promoting action mechanism of Decanal, the expression change of endocrine factors affecting hair growth was evaluated. The gene expression level of insulin-like growth factor 1 (IGF1), vascular endothelial growth factor (VEGF), hepatocyte growth factor (HGF), and keratinocyte growth factor (KGF), which were growth factors affecting hair growth promotion in back skin tissue, was evaluated. […]

[11] = test system: insulin-like growth factor 1 (IGF1); experiment: RT-PCR gene expression in back skin tissue; type: in vivo, mouse; details: 4 weeks application
Description: as §1
as §2, with “PCR conditions were set at 94° C. for 4 minutes, 94° C. for 30 seconds, 30 cycles [52° C. for 30 seconds, 72° C. for 45 seconds] and 72° C. for 10 minutes.” left out
as §4

[12] = test system: keratinocyte growth factor (KGF); experiment: RT-PCR gene expression in back skin tissue; type: in vivo, mouse; details: 4 weeks application
Description: as §1
as §2, with “PCR conditions were set at 94° C. for 4 minutes, 94° C. for 30 seconds, 30 cycles [52° C. for 30 seconds, 72° C. for 45 seconds] and 72° C. for 10 minutes.” left out
as §4

[13] = test system: vascular endothelial growth factor (VEGF); experiment: RT-PCR gene expression in back skin tissue; type: in vivo, mouse; details: 4 weeks application
Description: as §1
as §2, with “PCR conditions were set at 94° C. for 4 minutes, 94° C. for 30 seconds, 30 cycles [52° C. for 30 seconds, 72° C. for 45 seconds] and 72° C. for 10 minutes.” left out
as §4

[14] = test system: embryos of sea urchins and copepods; details: reported physiological activity; cited from earlier work
[15] = test system: nematode parasitic on plant roots; details: reported; cited from earlier work
[16] = Measurement of body weight change; details: 3 mg/mouse/day applied to back skin once a day
Description: The animals were kept in a temperature of 21±2.0° C., relative humidity of 50±5%, and 12 hours of day and night cycles. During the experiment, the mice were fed with a regular solid feed (chow) with water freely.
To examine the effect of promoting hair growth, 8-week-old mouse of telogen hair showing pink color of dorsal skin was used. After removing the hair of the mouse backing using a clipper for a mouse, the sample was applied once a day at 4:00 PM for four weeks. Decanal (3 mg/mouse/day) which is experimental material and minoxidil (3 mg/mouse/day) used as a reference drug were dissolved in vehicle (ethanol:water:propylene glycol=5:3:2) and applied, and the vehicle only was applied to the negative control group.
The body weight of the experimental animals was measured weekly from immediately before application of the hair growth treatment to the end of application.

SMILES: CCCCCCCCCC=O [DC, Decanal]
- Increase of hair length compared to negative control after 4 weeks ([1]; 4 weeks, p<0.001): 438%
- Visual state of hair growth after 4 weeks ([1]; 4 weeks, vs negative control): hair was grown evenly and heartily in the larger number of individuals compared to the negative control group
- Hair length compared to negative control, from the 2nd week ([1]; measured weekly): significantly increased from the 2nd week
- Onset of hair growth (visual observation) ([1]; negative control: no hair after 2 weeks): hair began to grow from the 2nd week after application
- Histological appearance of hair follicles [2]: the hair follicle was lengthened and appeared outside the skin
- Increase of hair follicle diameter compared to negative control ([2]; image analysis): 33%
- Increase of number of hair follicles compared to negative control ([2]; magnification of 40): 193%
- β-catenin protein expression effect compared to minoxidil group [3]: superior to the minoxidil group
- Increase of β-catenin protein expression compared to negative control ([3]; 3 mg/mouse/day): 79%
- Axin gene expression compared to negative control [4]: significantly decreased
- FZD1 gene expression compared to negative control [5]: significantly increased
- GSK3β gene expression compared to negative control [6]: significantly decreased
- LRP5 gene expression compared to negative control [7]: significantly increased
- Wnt10b gene expression compared to negative control [8]: significantly increased
- β-catenin gene expression compared to negative control [9]: significantly increased
- HGF gene expression compared to negative control [10]: significantly increased expression
- IGF1 gene expression compared to negative control [11]: significantly increased expression
- KGF gene expression compared to negative control [12]: significantly increased expression
- VEGF gene expression compared to negative control [13]: significantly increased expression
- Effect on embryos of sea urchins and copepods [14]: a reproductive failure was induced by inducing apoptosis
- Nematicidal activity [15]: strong nematicidal activity
- Body weight after 4 weeks of application, difference between experimental groups [16]: not significantly different

SMILES: Nc1cc(N2CCCCC2)nc(N)[n+]1[O-] [MXD, minoxidil, reference compound]
- Body weight after 4 weeks of application, difference between experimental groups [16]: not significantly different

Reference: patent US10617612B2, “Composition comprising decanal or as active ingredients for preventing hair loss or stimulating hair growth” (INDUSTRY-ACADEMIC COOPERATION FOUNDATION, YONSEI UNIVERSITY, priority 2016, dated 2020)
